{
  "source": "patent US20210220489A1",
  "about": "“AMYGDALAR NEURAL ENSEMBLE THAT ENCODES THE UNPL[…] PAIN” (The Board of Trustees of the Leland Stanford Junior …, priority 2020, published 2021)",
  "key": {"[1]": {"system": "ChR2-eYFP+ nociceptor mice", "test": "Optical real-time place escape avoidance task", "assay_type": "in vivo", "conditions": "CNO 10 mg/kg", "text": "To evaluate active avoidance and escape behaviors to optogenetically driven nociception, mice expressing ChR2 in peripheral primary afferent nociceptors freely explored a custom-built two-choice chamber with LED-lit floor panels. A 32×32 LED array (8×8 cm) illuminated half the array in blue light, and the other half in red light (˜0.3 mW/mm^2). A thin glass surface (0.5 cm thick) covered the array floor, upon which we fitted a black plastic chamber (38 cm H) with a center divider wall containing a square passage hole (5-cm D) raised 2.5 cm from the array floor. The entire LED chamber was maintained in a quiet room with low ambient light (˜5 lux). We first placed mice in the red-light chamber and then allowed them to freely explore the chambers for 15 min. A camera placed above the chamber recorded the location of the mouse in the apparatus. We manually scored the videos to determine the time spent by the mouse in each chamber (automated tracking was not possible given the light from the LED floor). Only one mouse was present in the room during all trials."}, "noci-TRAP^hM4 mice": {"system": "noci-TRAP^hM4 mice", "test": "Thermal gradient track adaptive avoidance", "assay_type": "in vivo", "conditions": "versus saline", "protocol": "To evaluate affective-motivational responses evoked by thermal stimulation (81), we applied either a single, unilateral 50-μL drop of water (5, 30, or 55° C.) or acetone (evaporative cooling) to the left hindpaw, and the duration of attending behavior was collected for up to 60 s after the stimulation. Only one drop stimulation was applied on a given testing session. To evaluate adaptive thermal avoidance and temperature preference, we placed mice in the center of a linear Thermal Gradient Track (121.92-cm L×8.25-cm W metal alloy floor; 15.24-cm H black plastic walls), with the floor featuring a temperature gradient along the long axis. Mice freely explored the track for 60 min. To create the temperature gradient, we placed either heating or cooling plates (Bioseb) under the outermost 16.51 cm of the metal floor, with one plate set to 50.0° C. and the other set to 0.0° C., creating an actual floor gradient of 48° C.→5° C., respectively. The track was subdivided into 25 temperature zones (4.8-cm D per zone), and we assessed the temperature at the center of each zone by a K-probe thermocouple. […] A video camera placed above the track recorded the position of the mouse within the temperature zones, and videos were later analyzed using a video-tracking software (Etho-vision, Noldus) for duration of zone occupancy, zone visits, distance, velocity, and acceleration."}, "BLA neurons": {"system": "BLA neurons", "test": "Clozapine-N-oxide control experiments with BLA Ca2+ imaging (no hM4 expression)", "assay_type": "in vivo, mice", "conditions": "CNO 10 mg/kg", "protocol": "To check for possible alterations of neural activity in the presence of CNO alone (i.e., no hM4 expression), we conducted a shortened version of the main protocol (FIGS. 15D-15G). We injected mice with CNO (10 mg/kg), then placed them back in their home cage. After approximately 25 min, we mounted the miniature microscope on the mouse's head and placed them within the test chamber. They habituated for 10 min followed by adlibitum access to 10% sucrose solution delivered in the same manner as previously described. Mice then received a battery of stimuli: light touch (0.07-g von Frey filament), noxious pin (25G needle), or aloud noise (˜85 dB, same as previously described). We collected all subsequent data, processed Ca2+ imaging movies, and performed analysis similar to the main protocol used in FIG. 7."}, "o-TRAP^hM4 mice": {"system": "o-TRAP^hM4 mice", "test": "Pain behaviors evoked by optogenetic activation of nociceptors (o-TRAP^hM4)", "assay_type": "in vivo", "conditions": "noxious transdermal light stimuli", "text": "Different AAV serotypes display unique infection tropisms. […] To express the light-sensitive cation channel channelrhodopsin2 (ChR2) in putative primary afferent nociceptors, we intrathecally injected AAV6-hSyn-ChR2(H134R)-eYFP immediately following the i.c. BLA injections of AAV-DIO-DREADD(Gi)-mCherry in TRAP mice while remaining anesthetized under isoflurane (1-2% maintenance). Specifically, we shaved a small patch of fur on the back, wiped with alcohol and Betadine, and then inserted a 33G beveled needle connected to a WPI Nanofil syringe between the L5/L6 vertebrae and through the dura (confirmation by presence of reflexive tail flick). We slowly administered the virus was over 20 s. We retuned mice to their home cage for 4-6 weeks before behavioral verification of ChR2 expression. […] As we sought expression in lumbar DRGs for the purposes of our behavioral experiments that involve sensory testing on the hind limbs, we performed a behavioral screening of each mouse for transdermal light-responsivity when light was applied to the hindpaw. We placed mice inside individual red plastic cylinders (10.16-cm D) on a thin glass surface. […] We measured whether an immediate nociceptive hindpaw reflex and/or pain affective-motivational behaviors (described below) occurred in response to the light indicated ChR2 expression in nociceptors. […]"}, "[2]": {"system": "neuropathic TRAP^hM4 mice", "test": "Two-chamber thermal escape-avoidance (cold place aversion) assay", "assay_type": "in vivo", "conditions": "floor of one chamber cooled from 30° to 10° C.", "protocol": "To evaluate neuropathic adaptive cool/cold avoidance behavior, mice with SNI freely explored a two-temperature choice chamber. The chamber was constructed from adjoining two thermal plates (Bioseb): one reference plate set at 30° C., and a test plate with the temperature adjusted to either 30, 25, 20, 15, or 10° C. for independent trials. The test plate temperature order was randomized for each trial within the day. The chamber (white opaque plastic with no distinguishing features and no divider, 30.48×15.24×15.24 cm) was fitted onto the conjoined plates. At Day 56 post SNI and at 30-min post CNO injection, we placed mice on the reference plate facing the back wall. Mice then freely explored the chamber for 5 min, while an overhead camera recorded the chamber position and locomotion. After each trial, the mouse was returned to the holding cylinder, while the test plate temperature was rapidly cooled or heated to the next randomly assigned temperature trial. This procedure was repeated until all temperature trials were collected (6 temperature trials total). Video files for each trial were later analyzed using automated tracking software (Ethovision, Noldus) for path tracking, time spent on the test plate, and number of entries onto the test plate."}},
  "data": [
    {"smiles": "C[N+]1([O-])CCN(C2=Nc3cc(Cl)ccc3Nc3ccccc32)CC1", "note": "[CNO, clozapine-N-oxide]", "values": [
      {"measurement": "aversion to the noxious blue light chamber", "setting": "[1]", "value": "eliminated the aversion"},
      {"measurement": "visits to the noxious zones", "setting": "noci-TRAP^hM4 mice; polar ends noxious cold (5 to 17° C.) and hot (42 to 8° C.)", "value": "more frequently"},
      {"measurement": "occupancy of the noxious zones", "setting": "noci-TRAP^hM4 mice; polar ends noxious cold (5 to 17° C.) and hot (42 to 48° C.)", "value": "prolonged periods"},
      {"measurement": "mean neural response to various stimuli", "setting": "BLA neurons", "value": "did not alter"},
      {"measurement": "attending and escape behaviors", "setting": "o-TRAP^hM4 mice", "value": "reduces"},
      {"measurement": "preference between cold and neutral temperature chambers", "setting": "[2]", "value": "near-total indifference"}
    ]}
  ]
}
